Data as given in US20130209368A1, “NEAR INFRARED FLUORESCENT PARTICLES AND USES THEREOF” (YISSUM RESEARCH DEVELOPMENT COMPANY OF THE HEBREW …, priority 2010, published 2013).

What was measured:
[1] = Absorption of ICG over time at light and at dark; type: physicochemical
Method: Absorbance spectra of the samples were taken using a Cary 100 Biospectrophotometer, in a 1 cm polystyrene cell, and a scan rate of 600 nm/min.
The red shift is accompanied with quenching of fluorescence, i.e., the larger the red shift the lower the fluorescence intensity. Because the fluorescence intensity of ICG-liposomes was greater than that of unbound ICG molecules (aqueous solution), the quantum yield ratio between the two states in which ICG is present was determined, for a concentration of 1.28×10^−3 mM. As mentioned above, ICG is poorly stable in aqueous solutions due to degradation, and therefore, in order to evaluate the stability of the ICG-adsorbed liposomes, the absorption of this fluorescent probe, when dissolved in an aqueous solution or adsorbed to the liposomes, was measured at light and at dark over time.

[2] = test system: Erk phosphorylation, an EGFR downstream signaling molecule, in A431 cells; assay: EGF-FITC bioactivity: Erk phosphorylation by Western blotting; type: cell-based; conditions: A431 cultures, 10 ng/ml for 10 min
Method: FIGS. 7A-7D show purification and bioactivity validation of EGF-FITC. Purification of FITC-labeled EGF was performed in two sequential steps of desalting (7A) and ion exchange (7B). A431 cultures were incubated with 10 ng/ml for 10 min with native (EGF) and FITC-labeled EGF (EGF-FITC) or left untreated. The phosphorylation of Erk (p-Erk) was evaluated using Western blotting. Total Erk protein (pan-Erk) was measured for internal control purposes to assure loading of equal protein quantities (7C). A431 cells were incubated for 15 min with 10 ng/ml EGF-FITC in the presence or absence of excess unlabeled EGF (500 ng/ml) or left untreated. […]
Western blotting was performed as described by Lecht et al. (2010). Briefly, total cellular protein was extracted following lysis of the A431 cells and quantified using the Bradford reagent assay (Bio-Rad, Hercules, Calif., USA). For Western blotting, equal quantities of protein (40 μg) were loaded on 10% polyacrylamide gels, separated by SDS-PAGE (100 V for 1.5 hrs), and transferred on ice to nitrocellulose membranes (90 V for 1.5 hrs) (Whatman, Germany). […]
In order to study the binding of cetuximab-labeled ICG-adsorbed liposomes to cell overexpressing EGFR we prepared FITC-labeled EGF (EGF-FITC) to be used as positive control. […] Upon purification of EGF-FITC, the bioactivity of the labeled protein was evaluated. […]

A431 cells = assay: EGF-FITC labeling of A431 cells by fluorescent microscopy; type: cell-based; conditions: 10 ng/ml, 15 min; reduced by excess unlabeled EGF
Method: FIGS. 7A-7D show purification and bioactivity validation of EGF-FITC. Purification of FITC-labeled EGF was performed in two sequential steps of desalting (7A) and ion exchange (7B). A431 cultures were incubated with 10 ng/ml for 10 min with native (EGF) and FITC-labeled EGF (EGF-FITC) or left untreated. The phosphorylation of Erk (p-Erk) was evaluated using Western blotting. Total Erk protein (pan-Erk) was measured for internal control purposes to assure loading of equal protein quantities (7C). A431 cells were incubated for 15 min with 10 ng/ml EGF-FITC in the presence or absence of excess unlabeled EGF (500 ng/ml) or left untreated. The cultures were visualized using fluorescent microscopy at 40× magnification (7D).
In order to study the binding of cetuximab-labeled ICG-adsorbed liposomes to cell overexpressing EGFR we prepared FITC-labeled EGF (EGF-FITC) to be used as positive control. EGF-FITC was purified from excess FITC and unlabeled FOP via desalting and ion exchange purification steps. Following desalting, the fraction containing EGF and EGF-FITC was collected (FIG. 7A) and further processed to separate labeled from unlabeled EGF. […] Upon purification of EGF-FITC, the bioactivity of the labeled protein was evaluated. […] Following validation of the bioactivity of the labeled protein, EGF-FITC was used in the next experiments as a positive control.

For `CC1(C)C(/C=C/C=C/C=C/C=C2\N(CCCCS(=O)(=O)[O-])c3ccc4ccccc4c3C2(C)C)=[N+](CCCCS(=O)(=O)[O-])c2ccc3ccccc3c21.[Na+]` [ICG, Indocyanine green], which “ICG absorption over time” value [1] is on record?
Its value is “decreases over time both in light and in dark”.

Which Erk phosphorylation [2] does the source give for “EGF-FITC: human recombinant EGF covalently labeled with FITC, used as positive control” here?
The Erk phosphorylation was “able to induce Erk phosphorylation”.

What about the “labeling of A431 cells” value (A431 cells) of the same compound?
Its value is “highly specific labeling”.
